According to patent publication US12258370B2, “Betulastatin compounds” (Arizona Board of Regents on behalf of Arizona State …, priority 2017, dated 2025):

Assays:
Format in all cases: cell-based
BXPC-3 (pancreas) = test: Sulforhodamine B human cancer cell growth inhibition, BXPC-3; conditions: BXPC-3 pancreas cell line, compounds in DMSO, 48 h; for IC50: Homo sapiens, read-out: Gl50 Growth Inhibition, XPC-3
Method: (§1) Cancer Cell Line Procedures. Inhibition of human cancer cell growth was assessed using the standard sulforhodamine B assay of the U.S. National Cancer Institute, as previously described.^15 To begin, cells in a 5% fetal bovine serum/RPMI1640 medium were inoculated in 96-well plates and incubated for 24 h. Next, serial dilutions of the compounds were added. After 48 h, the plates were fixed with trichloroacetic acid, stained with sulforhodamine B, and read with an automated microplate reader.

MCF-7 (breast) = test: Sulforhodamine B human cancer cell growth inhibition, MCF-7; conditions: compounds in DMSO, 48 h; for Gl50 Growth Inhibition, MCF-7: MCF-7 breast cell line; for IC50: Homo sapiens, MCF7, MCF-7 breast cell line, read-out: Gl50 Growth Inhibition, MCF-7
Method: as §1

SF-268 (CNS) = test: Sulforhodamine B human cancer cell growth inhibition, SF-268; conditions: SF-268 CNS cell line, compounds in DMSO, 48 h; for IC50: Homo sapiens, read-out: Gl50 Growth Inhibition, SF-268
Method: as §1

NCI-H460 (lung) = test: Sulforhodamine B human cancer cell growth inhibition, NCI-H460; conditions: NCI-H460 lung cell line, compounds in DMSO, 48 h; for IC50: Homo sapiens, read-out: Gl50 Growth Inhibition, NCI-H460
Method: as §1

KM20L2 (colon) = test: Sulforhodamine B human cancer cell growth inhibition, KM20L2; conditions: compounds in DMSO, 48 h; for Gl50 Growth Inhibition, KM20L2: KM20L2 colon cell line; for IC50: Homo sapiens, KM-20L2, KM20L2 colon cell line, read-out: Gl50 Growth Inhibition, KM20L2
Method: as §1

DU-145 (prostate) = test: Sulforhodamine B human cancer cell growth inhibition, DU-145; conditions: DU-145 prostate cell line, compounds in DMSO, 48 h; for IC50: Homo sapiens, read-out: Gl50 Growth Inhibition, DU-145
Method: as §1

## C=C(CNC(=O)[C@H](C)[C@@H](OC)[C@@H]1CCCN1C(=O)C[C@@H](OC)[C@H]([C@@H](C)CC)N(C)C(=O)[C@@H](NC(=O)[C@H](C(C)C)N(C)C)C(C)C)[C@@H]1CC[C@]2(COC(C)=O)CC[C@]3(C)[C@H](CC[C@@H]4[C@@]5(C)CC[C@H](OC(C)=O)C(C)(C)[C@@H]5CC[C@]43C)[C@@H]12 [Compound 16a, 30-N-(Dap-Dil-Val-Dov)-3,28-di-O-acetoxy-betulin]
BXPC-3 (pancreas)
  Gl50 Growth Inhibition, XPC-3: 8.0 µg/mL
MCF-7 (breast)
  Gl50 Growth Inhibition, MCF-7: 6.3 µg/mL
SF-268 (CNS)
  Gl50 Growth Inhibition, SF-268: 4.0 µg/mL
NCI-H460 (lung)
  Gl50 Growth Inhibition, NCI-H460: >10 µg/mL
KM20L2 (colon)
  Gl50 Growth Inhibition, KM20L2: 4.0 µg/mL
DU-145 (prostate)
  Gl50 Growth Inhibition, DU-145: 3.0 µg/mL

## C=C(CNC(=O)[C@H](C)[C@@H](OC)[C@@H]1CCCN1C(=O)OC(C)(C)C)[C@@H]1CC[C@]2(COC(C)=O)CC[C@]3(C)[C@H](CC[C@@H]4[C@@]5(C)CC[C@H](OC(C)=O)C(C)(C)[C@@H]5CC[C@]43C)[C@@H]12 [Compound 15b, 30-N-(Boc-dap)-3, 28-di-O-acetoxy-betulin]
BXPC-3 (pancreas)
  Gl50 Growth Inhibition, XPC-3: >10 µg/mL
MCF-7 (breast)
  Gl50 Growth Inhibition, MCF-7: >10 µg/mL
SF-268 (CNS)
  Gl50 Growth Inhibition, SF-268: 5.9 µg/mL
NCI-H460 (lung)
  Gl50 Growth Inhibition, NCI-H460: >10 µg/mL
KM20L2 (colon)
  Gl50 Growth Inhibition, KM20L2: 7.0 µg/mL
DU-145 (prostate)
  Gl50 Growth Inhibition, DU-145: >10 µg/mL

## C=C(CN)[C@@H]1CC[C@]2(CO)CC[C@]3(C)[C@H](CC[C@@H]4[C@@]5(C)CC[C@H](O)C(C)(C)[C@@H]5CC[C@]43C)[C@@H]12 [Compound 14, 30-Amino-betulin]
BXPC-3 (pancreas)
  Gl50 Growth Inhibition, XPC-3: 3.0 µg/mL
MCF-7 (breast)
  Gl50 Growth Inhibition, MCF-7: 3.1 µg/mL
SF-268 (CNS)
  Gl50 Growth Inhibition, SF-268: 4.2 µg/mL
NCI-H460 (lung)
  Gl50 Growth Inhibition, NCI-H460: 4.0 µg/mL
KM20L2 (colon)
  Gl50 Growth Inhibition, KM20L2: 2.9 µg/mL
DU-145 (prostate)
  Gl50 Growth Inhibition, DU-145: 2.1 µg/mL

## C=C(C)[C@@H]1CC[C@]2(COC(C)=O)CC[C@]3(C)[C@H](CC[C@@H]4[C@@]5(C)CCC(N)C(C)(C)[C@@H]5CC[C@]43C)[C@@H]12 (single isomer, unassigned) [Compound 9a, 3-α/β-Amino-28-O-acetyl-betulin]
BXPC-3 (pancreas)
  Gl50 Growth Inhibition, XPC-3: >10 µg/mL
MCF-7 (breast)
  Gl50 Growth Inhibition, MCF-7: 2.1 µg/mL
SF-268 (CNS)
  Gl50 Growth Inhibition, SF-268: 1.2 µg/mL
NCI-H460 (lung)
  Gl50 Growth Inhibition, NCI-H460: 6.0 µg/mL
KM20L2 (colon)
  Gl50 Growth Inhibition, KM20L2: 3.0 µg/mL
DU-145 (prostate)
  Gl50 Growth Inhibition, DU-145: 1.3 µg/mL

## C=C(C)[C@@H]1CC[C@]2(CNC(=O)[C@H](C)[C@@H](OC)C3CCCN3C(=O)OC(C)(C)C)CC[C@]3(C)C(CCC4[C@@]5(C)CC[C@H](OC(C)=O)C(C)(C)C5CC[C@]43C)C12 (stereo partly drawn) [Compound 5, 3-O-Acetyl-28-amino-N-(Boc-dap)-betulin]
BXPC-3 (pancreas)
  IC50: > 10 µg/mL
MCF-7 (breast)
  IC50: > 10 µg/mL
SF-268 (CNS)
  IC50: > 10 µg/mL
NCI-H460 (lung)
  IC50: > 10 µg/mL
KM20L2 (colon)
  IC50: > 10 µg/mL
DU-145 (prostate)
  IC50: > 10 µg/mL

## C=C(C)[C@@H]1CC[C@]2(COC(C)=O)CC[C@]3(C)[C@H](CC[C@@H]4[C@@]5(C)CC[C@H](NC(=O)[C@H](C)[C@@H](OC)[C@@H]6CCCN6C(=O)C[C@@H](OC)[C@H]([C@@H](C)CC)N(C)C(=O)[C@@H](NC(=O)[C@H](C(C)C)N(C)C)C(C)C)C(C)(C)[C@@H]5CC[C@]43C)[C@@H]12 [Compound 11a, 3β-Amino-N-(Dap-Dil-Val-Dov)-28-O-acetyl-betulin]
BXPC-3 (pancreas)
  Gl50 Growth Inhibition, XPC-3: 10.0 µg/mL
MCF-7 (breast)
  Gl50 Growth Inhibition, MCF-7: 4.1 µg/mL
SF-268 (CNS)
  Gl50 Growth Inhibition, SF-268: 3.8 µg/mL
NCI-H460 (lung)
  Gl50 Growth Inhibition, NCI-H460: >10 µg/mL
KM20L2 (colon)
  Gl50 Growth Inhibition, KM20L2: 7.0 µg/mL
DU-145 (prostate)
  Gl50 Growth Inhibition, DU-145: 2.5 µg/mL

## 3-O-Acetyl-28-amido-allobetulin-28-N-1′-ethyldiamine-N-2′-Dap-Dil-Val-Dov [Compound 18a]
BXPC-3 (pancreas)
  Gl50 Growth Inhibition, XPC-3: 3.8 µg/mL
MCF-7 (breast)
  Gl50 Growth Inhibition, MCF-7: 3.6 µg/mL
SF-268 (CNS)
  Gl50 Growth Inhibition, SF-268: 1.3 µg/mL
NCI-H460 (lung)
  Gl50 Growth Inhibition, NCI-H460: 5.1 µg/mL
KM20L2 (colon)
  Gl50 Growth Inhibition, KM20L2: 3.1 µg/mL
DU-145 (prostate)
  Gl50 Growth Inhibition, DU-145: 0.39 µg/mL

## C=C(C)[C@@H]1CC[C@]2(CNC(=O)[C@H](C)[C@@H](OC)[C@@H]3CCCN3C(=O)C[C@@H](OC)[C@H]([C@@H](C)CC)N(C)C(=O)[C@@H](NC(=O)[C@H](C(C)C)N(C)C)C(C)C)CC[C@]3(C)[C@H](CC[C@@H]4[C@@]5(C)CC[C@H](OC(C)=O)C(C)(C)[C@@H]5CC[C@]43C)[C@@H]12 [Compound 7a, 3-O-Acetyl-28-amino-N-(Dap-Dil-Val-Dov)-betulin]
BXPC-3 (pancreas)
  Gl50 Growth Inhibition, XPC-3: 4.1 µg/mL
MCF-7 (breast)
  Gl50 Growth Inhibition, MCF-7: 3.6 µg/mL
SF-268 (CNS)
  Gl50 Growth Inhibition, SF-268: 2.6 µg/mL
NCI-H460 (lung)
  Gl50 Growth Inhibition, NCI-H460: 4.2 µg/mL
KM20L2 (colon)
  Gl50 Growth Inhibition, KM20L2: 2.4 µg/mL
DU-145 (prostate)
  Gl50 Growth Inhibition, DU-145: 3.7 µg/mL

## C=C(C)[C@@H]1CC[C@]2(COC(C)=O)CC[C@]3(C)C(CCC4[C@@]5(C)CC[C@H](NC(=O)[C@H](C)[C@@H](OC)C6CCCN6C(=O)OC(C)(C)C)C(C)(C)[C@@H]5CC[C@]43C)[C@@H]12 (stereo partly drawn) [Compound 10, 3-β-Amino-N-(Boc-Dap)-28-O-acetyl-betulin]
BXPC-3 (pancreas)
  IC50: > 10 µg/mL
MCF-7 (breast)
  IC50: > 10 µg/mL
SF-268 (CNS)
  IC50: > 10 µg/mL
NCI-H460 (lung)
  IC50: > 10 µg/mL
KM20L2 (colon)
  IC50: > 10 µg/mL
DU-145 (prostate)
  IC50: > 10 µg/mL
